Laboratory results from ChEMBL document CHEMBL3991601, “The target landscape of clinical kinase drugs” (Science, 2017).
Active and inactive are the calls of the source. Rule as the data show it, for most assays here: actives have a measured Kd and inactives only a lower limit.

What was measured:
Ephrin type-A receptor 4 = Ephrin type-A receptor 4 (Homo sapiens, UniProt P54764)
[1] = target: Epithelial discoidin domain-containing receptor 1 (Homo sapiens, UniProt Q08345)
[2] = target: cAMP-dependent protein kinase catalytic subunit beta (Homo sapiens, UniProt P22694)
[3] = target: T1, Serine/threonine-protein kinase D2 (Homo sapiens, UniProt Q9BZL6)
T1 sequence (Q9BZL6 whole entry): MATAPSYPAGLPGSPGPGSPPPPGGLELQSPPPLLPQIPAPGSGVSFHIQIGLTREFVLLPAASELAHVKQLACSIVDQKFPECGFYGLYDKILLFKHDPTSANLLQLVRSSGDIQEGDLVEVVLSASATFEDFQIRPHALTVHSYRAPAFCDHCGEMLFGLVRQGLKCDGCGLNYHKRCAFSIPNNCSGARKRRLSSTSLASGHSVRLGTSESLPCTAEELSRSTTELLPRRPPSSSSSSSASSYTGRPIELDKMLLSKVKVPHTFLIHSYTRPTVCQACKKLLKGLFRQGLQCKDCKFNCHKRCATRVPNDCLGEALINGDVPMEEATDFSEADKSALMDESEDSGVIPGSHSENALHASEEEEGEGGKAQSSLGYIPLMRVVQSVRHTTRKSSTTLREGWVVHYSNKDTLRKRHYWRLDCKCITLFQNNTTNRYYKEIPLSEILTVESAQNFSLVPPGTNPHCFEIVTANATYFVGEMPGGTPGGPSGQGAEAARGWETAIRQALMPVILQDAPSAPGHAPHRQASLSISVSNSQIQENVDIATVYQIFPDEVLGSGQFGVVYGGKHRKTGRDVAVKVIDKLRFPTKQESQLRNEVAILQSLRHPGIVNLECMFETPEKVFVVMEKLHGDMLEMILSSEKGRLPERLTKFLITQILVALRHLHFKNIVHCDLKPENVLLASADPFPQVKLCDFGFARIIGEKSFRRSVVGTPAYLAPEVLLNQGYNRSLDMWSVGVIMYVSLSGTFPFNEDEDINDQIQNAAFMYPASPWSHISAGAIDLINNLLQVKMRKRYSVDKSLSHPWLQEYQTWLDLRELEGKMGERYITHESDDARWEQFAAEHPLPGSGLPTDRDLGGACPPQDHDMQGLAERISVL

Deoxycytidine kinase = Deoxycytidine kinase (Homo sapiens, UniProt P27707)
Deoxycytidine kinase, sequence (P27707 whole entry): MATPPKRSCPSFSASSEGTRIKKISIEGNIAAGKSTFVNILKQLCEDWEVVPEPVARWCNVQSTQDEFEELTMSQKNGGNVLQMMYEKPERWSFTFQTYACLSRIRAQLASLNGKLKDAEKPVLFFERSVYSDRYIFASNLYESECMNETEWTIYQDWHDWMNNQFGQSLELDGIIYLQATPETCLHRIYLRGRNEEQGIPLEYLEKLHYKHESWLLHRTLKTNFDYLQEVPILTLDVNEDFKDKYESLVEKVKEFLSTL

Activin receptor type-1 = target: T2, Activin receptor type-1 (Homo sapiens, UniProt Q04771)
T2 sequence (Q04771 whole entry): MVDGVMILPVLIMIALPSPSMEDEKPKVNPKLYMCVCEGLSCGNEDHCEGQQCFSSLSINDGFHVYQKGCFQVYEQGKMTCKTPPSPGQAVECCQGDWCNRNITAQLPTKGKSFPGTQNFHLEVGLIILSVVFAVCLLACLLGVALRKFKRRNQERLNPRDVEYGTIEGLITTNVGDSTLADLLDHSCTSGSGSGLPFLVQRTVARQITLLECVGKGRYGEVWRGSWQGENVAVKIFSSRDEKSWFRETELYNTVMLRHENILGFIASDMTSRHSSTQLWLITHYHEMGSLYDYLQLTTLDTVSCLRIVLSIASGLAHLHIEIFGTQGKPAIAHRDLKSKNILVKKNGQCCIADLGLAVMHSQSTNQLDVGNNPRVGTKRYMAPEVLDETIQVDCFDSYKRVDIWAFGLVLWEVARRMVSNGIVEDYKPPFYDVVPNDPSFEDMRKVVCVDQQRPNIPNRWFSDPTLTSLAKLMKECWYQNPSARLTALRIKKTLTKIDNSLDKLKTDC

[4] = target: Eukaryotic translation initiation factor 2-alpha kinase 1 (Homo sapiens, UniProt Q9BQI3)
Eukaryotic translation initiation factor 2-alpha kinase 1, sequence (Q9BQI3 whole entry): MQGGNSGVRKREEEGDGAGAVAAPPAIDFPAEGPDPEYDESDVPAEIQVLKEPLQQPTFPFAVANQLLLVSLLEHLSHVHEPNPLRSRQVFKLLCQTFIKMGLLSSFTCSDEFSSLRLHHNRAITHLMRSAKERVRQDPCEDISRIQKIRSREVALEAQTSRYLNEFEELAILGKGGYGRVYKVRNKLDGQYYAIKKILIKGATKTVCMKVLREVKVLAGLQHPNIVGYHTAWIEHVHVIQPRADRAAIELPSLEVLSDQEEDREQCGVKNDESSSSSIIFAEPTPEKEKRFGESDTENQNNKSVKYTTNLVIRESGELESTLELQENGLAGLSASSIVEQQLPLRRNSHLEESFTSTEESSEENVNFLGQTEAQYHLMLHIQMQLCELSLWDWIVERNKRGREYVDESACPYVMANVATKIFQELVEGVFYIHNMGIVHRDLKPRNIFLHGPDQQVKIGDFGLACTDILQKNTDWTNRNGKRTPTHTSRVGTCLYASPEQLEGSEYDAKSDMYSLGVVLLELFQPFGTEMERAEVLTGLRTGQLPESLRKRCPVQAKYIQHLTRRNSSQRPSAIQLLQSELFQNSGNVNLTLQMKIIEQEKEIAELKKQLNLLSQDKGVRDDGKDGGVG

[5] = target: T3, Peroxisomal acyl-coenzyme A oxidase 3 (Homo sapiens, UniProt O15254)
T3 sequence (O15254 whole entry): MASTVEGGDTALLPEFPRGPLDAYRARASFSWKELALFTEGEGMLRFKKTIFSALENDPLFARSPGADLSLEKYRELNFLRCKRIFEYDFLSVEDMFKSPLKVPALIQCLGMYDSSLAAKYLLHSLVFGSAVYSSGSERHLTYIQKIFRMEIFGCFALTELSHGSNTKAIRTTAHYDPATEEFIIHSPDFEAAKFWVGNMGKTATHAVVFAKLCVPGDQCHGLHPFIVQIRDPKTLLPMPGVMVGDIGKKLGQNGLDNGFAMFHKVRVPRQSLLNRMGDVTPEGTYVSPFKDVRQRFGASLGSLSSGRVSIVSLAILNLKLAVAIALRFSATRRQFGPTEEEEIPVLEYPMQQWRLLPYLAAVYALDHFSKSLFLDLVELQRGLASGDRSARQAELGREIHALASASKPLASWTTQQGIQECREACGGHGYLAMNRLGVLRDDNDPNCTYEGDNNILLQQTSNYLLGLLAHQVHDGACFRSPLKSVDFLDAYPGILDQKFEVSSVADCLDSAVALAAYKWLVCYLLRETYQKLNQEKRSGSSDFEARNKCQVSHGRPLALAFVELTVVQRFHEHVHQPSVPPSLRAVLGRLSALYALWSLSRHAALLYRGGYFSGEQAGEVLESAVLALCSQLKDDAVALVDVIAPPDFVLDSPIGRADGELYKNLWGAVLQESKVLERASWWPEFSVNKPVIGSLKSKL

Measured: Kd
Also: in the data inactive means no Kd found up to 30 µM.

Ephrin type-A receptor 4, sequence (P54764 whole entry, the tested form may be a part): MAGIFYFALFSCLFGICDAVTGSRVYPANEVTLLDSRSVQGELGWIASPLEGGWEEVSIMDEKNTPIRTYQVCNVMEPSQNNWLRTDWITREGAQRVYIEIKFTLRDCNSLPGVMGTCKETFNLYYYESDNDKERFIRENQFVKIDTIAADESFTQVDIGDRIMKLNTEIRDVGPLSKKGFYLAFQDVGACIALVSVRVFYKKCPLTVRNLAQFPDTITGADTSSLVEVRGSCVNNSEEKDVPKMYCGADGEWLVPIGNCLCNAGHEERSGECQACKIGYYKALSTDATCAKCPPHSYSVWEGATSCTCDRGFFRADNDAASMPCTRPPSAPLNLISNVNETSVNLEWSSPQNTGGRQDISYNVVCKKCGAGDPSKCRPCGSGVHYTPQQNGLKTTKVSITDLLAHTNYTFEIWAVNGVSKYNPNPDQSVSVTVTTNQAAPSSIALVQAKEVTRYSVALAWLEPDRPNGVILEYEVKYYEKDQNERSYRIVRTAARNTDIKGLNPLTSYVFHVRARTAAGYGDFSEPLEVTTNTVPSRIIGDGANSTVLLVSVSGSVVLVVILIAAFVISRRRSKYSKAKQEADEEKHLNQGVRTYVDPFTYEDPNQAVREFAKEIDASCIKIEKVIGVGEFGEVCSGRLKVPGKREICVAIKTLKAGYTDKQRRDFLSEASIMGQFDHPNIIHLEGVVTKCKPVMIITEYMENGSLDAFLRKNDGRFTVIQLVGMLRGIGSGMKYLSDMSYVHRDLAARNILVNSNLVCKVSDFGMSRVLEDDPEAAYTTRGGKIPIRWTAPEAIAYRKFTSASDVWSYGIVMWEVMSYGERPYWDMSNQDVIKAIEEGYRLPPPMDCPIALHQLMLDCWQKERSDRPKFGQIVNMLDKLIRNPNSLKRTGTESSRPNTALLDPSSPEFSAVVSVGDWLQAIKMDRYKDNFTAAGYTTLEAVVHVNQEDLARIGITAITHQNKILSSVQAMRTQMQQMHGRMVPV
Epithelial discoidin domain-containing receptor 1, sequence (Q08345 whole entry, the tested form may be a part): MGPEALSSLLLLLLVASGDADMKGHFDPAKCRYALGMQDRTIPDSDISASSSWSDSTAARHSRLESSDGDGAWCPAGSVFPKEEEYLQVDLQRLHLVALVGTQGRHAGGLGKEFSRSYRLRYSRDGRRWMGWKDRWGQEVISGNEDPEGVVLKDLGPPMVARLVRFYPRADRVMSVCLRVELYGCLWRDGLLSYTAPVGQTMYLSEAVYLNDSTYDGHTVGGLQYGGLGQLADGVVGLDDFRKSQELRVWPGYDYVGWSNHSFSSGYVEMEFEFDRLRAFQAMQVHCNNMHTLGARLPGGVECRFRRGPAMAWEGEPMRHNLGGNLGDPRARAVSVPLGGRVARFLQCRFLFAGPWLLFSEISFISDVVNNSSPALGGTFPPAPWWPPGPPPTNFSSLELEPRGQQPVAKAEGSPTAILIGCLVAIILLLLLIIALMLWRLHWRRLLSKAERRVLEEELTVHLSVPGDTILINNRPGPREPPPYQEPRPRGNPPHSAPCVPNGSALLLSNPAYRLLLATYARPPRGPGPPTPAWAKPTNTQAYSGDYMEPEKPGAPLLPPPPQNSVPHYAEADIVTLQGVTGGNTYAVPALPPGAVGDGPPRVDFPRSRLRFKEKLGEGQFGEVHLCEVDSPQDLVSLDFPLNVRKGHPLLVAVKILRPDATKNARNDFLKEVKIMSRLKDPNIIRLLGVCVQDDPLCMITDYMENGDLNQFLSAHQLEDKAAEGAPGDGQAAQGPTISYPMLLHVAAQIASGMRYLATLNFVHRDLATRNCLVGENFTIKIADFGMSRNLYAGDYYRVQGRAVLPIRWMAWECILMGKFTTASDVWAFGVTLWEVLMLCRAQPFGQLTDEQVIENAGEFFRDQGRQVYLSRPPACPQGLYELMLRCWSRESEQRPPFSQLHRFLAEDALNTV

Cc1cc(C(=O)Nc2cc(Oc3ccc4nc(NC(=O)C5CC5)cn4n3)ccc2C)n(C)n1 [TAK-593]
active: [1] 14.7 µM
inactive: Ephrin type-A receptor 4 > 30 µM | [2] > 30 µM | [3] > 30 µM | Deoxycytidine kinase > 30 µM | Activin receptor type-1 > 30 µM | [4] > 30 µM | [5] > 30 µM

Cn1c(=O)c(F)c(Nc2ccc(I)cc2F)c2c(=O)n(C[C@@H](O)CO)cnc21 [TAK-733]
inactive: Ephrin type-A receptor 4 > 30 µM | [1] > 30 µM | [2] > 30 µM | [3] > 30 µM | Deoxycytidine kinase > 30 µM | Activin receptor type-1 > 30 µM | [4] > 30 µM | [5] > 30 µM

O[C@H]1CC[C@H](Nc2ncc3nc(Nc4c(F)cc(F)cc4F)n([C@H]4CCOC4)c3n2)CC1 [TANZISERTIB]
inactive: Ephrin type-A receptor 4 > 30 µM | [1] > 30 µM | [2] > 30 µM | [3] > 30 µM | Deoxycytidine kinase > 30 µM | Activin receptor type-1 > 30 µM | [4] > 30 µM | [5] > 30 µM

CNC(=O)c1cc(COc2nnc(Nc3ccc(Cl)cc3)c3ccoc23)ccn1 [TELATINIB]
inactive: Ephrin type-A receptor 4 > 30 µM | [1] > 30 µM | [2] > 30 µM | [3] > 30 µM | Deoxycytidine kinase > 30 µM | Activin receptor type-1 > 30 µM | [4] > 30 µM | [5] > 30 µM

Cc1cc(-c2cc(OC(=O)c3ccccc3)ccc2Cl)cc2nnc(Nc3ccc(OCCN4CCCC4)cc3)nc12 [TG100-801]
inactive: [2] > 30 µM | [3] > 30 µM | Deoxycytidine kinase > 30 µM | Activin receptor type-1 > 30 µM | [4] > 30 µM | [5] > 30 µM
1.93 µM: Ephrin type-A receptor 4
1.73 µM: [1]

C[C@@H]1COC(Nc2ccc3ncnc(Nc4ccc(OCc5nccs5)c(Cl)c4)c3c2)=N1 [VARLITINIB]
inactive: Ephrin type-A receptor 4 > 30 µM | [1] > 30 µM | [2] > 30 µM | [3] > 30 µM | Deoxycytidine kinase > 30 µM | Activin receptor type-1 > 30 µM | [4] > 30 µM | [5] > 30 µM

NC(=O)c1ccc(N(C(N)=O)c2c(F)cccc2F)nc1-c1ccc(F)cc1F [VX-702]
inactive: Ephrin type-A receptor 4 > 30 µM | [1] > 30 µM | [2] > 30 µM | [3] > 30 µM | Deoxycytidine kinase > 30 µM | Activin receptor type-1 > 30 µM | [4] > 30 µM | [5] > 30 µM

COc1cc2ncnc(Nc3ccc(O)cc3)c2cc1OC [WHI-P131]
inactive: Ephrin type-A receptor 4 > 30 µM | [1] > 30 µM | [2] > 30 µM | [3] > 30 µM | Deoxycytidine kinase > 30 µM | Activin receptor type-1 > 30 µM | [4] > 30 µM | [5] > 30 µM
